Data: patent US12226443B2, “Polyphenol composition and method of its use and manufacture in the treatment of metabolic disorders” (Vidya Herbs, Inc., priority 2018, dated 2025)

Assay: DPPH scavenging assay
Conditions: composition at 100 μg/ml
Method: The free radical scavenging capacity of the composition was determined using DPPH scavenging assay (Braca et al. 2001). DPPH solution was prepared in 95% methanol. Freshly prepared DPPH solution was taken in test tubes and different concentration of the composition (20-100 μg/mL) were added and incubated for 20 min. The absorbance was read at 517 nm using a spectrophotometer. Blank was prepared containing the same volume of reaction mixture without any test samples. The percentage of scavenging was calculated using formula: % Scavenging=Ac−As/Ac×100 Where AC was the absorbance of the control (blank without extract) and As was the absorbance in the presence of the extract.

## O=C1O[C@H]([C@@H](O)CO)C(O)=C1O [ascorbic acid]
  DPPH radical scavenging, maximum activity: 96.71%
